Legend:
E. Coli = experiment: Minimum bactericidal concentration of iodopovidone; format: cell-based
C. albicans = experiment: Minimum fungicidal concentration of iodopovidone; format: cell-based

Substance: iodopovidone
- minimum bactericidal concentration (E. Coli): 2000 µM
- minimum fungicidal concentration (C. albicans): 1000 µM
